Measurements reported in patent US8343467B2 (Beiersdorf AG, priority 2004, dated 2013).

Columns and labels:
bacteria = assay: antimicrobial / antibacterial effectiveness of glycopyrrolate alone and as enhancer; type: cell-based
Source text: Although this incorporation alone is not sufficient to destroy the bacteria, this makes them more susceptible to attack by antibacterial substances (deodorizing/antiperspirant agents) which can pass through or even destroy the membrane due to the impaired membrane integrity.

[1] = compared with scopolamine, cited from earlier work

For `C[N+]1(C)CC[C@@H](OC(=O)[C@@](O)(c2ccccc2)C2CCCC2)C1` (relative stereo) [Glycopyrrolate, (±)-(R*)-3-[(S*)-(cyclopentyl hydroxyphenylacetoxy]-1,1-dimethylpyrrolidiniumbromide], the antimicrobial effectiveness (bacteria; glycopyrrolate alone) is listed as “no or only slight antimicrobial effectiveness”, the antibacterial effect (bacteria; glycopyrrolate alone in the formulations used) is listed as “does not show any antibacterial effect” and the “penetration of biological membranes” value [1] is listed as “penetrates biological membranes more slowly”. The side effects ([1]; topical) was “fewer side effects than scopolamine”.
